Earlier results, collected in patent US7604823B2, “Synergistic HIV/AIDS and/or immune disease phyto-nutraceutical composition” (priority 2006, dated 2009).
“Also recorded” adds a separate entry of the source.

Tests used:
[1] = test system: bacterial resistance mechanism (multidrug pump); conditions: in the presence of 5′-MHC
[2] = target: HIV-1 PR (Human immunodeficiency virus type 1 group M subtype B, UniProt P04585)
[3] = test system: HIV-1-infected cells (CEM/LAV-1)
[4] = target: HIV-1 reverse transcriptase (Human immunodeficiency virus type 1 group M subtype B, UniProt P04585)
[5] = test system: HIV-1
[6] = test system: HIV-1; conditions: prolonged period
[7] = test system: HIV; conditions: after administration, no antiretroviral medications
[8] = test system: HIV-1 LTR-directed gene expression; conditions: concentrations that have minor effects on cells
[9] = test system: cells either acutely or chronically infected with HIV-1; conditions: cells acutely or chronically infected with HIV-1
[10] = test system: HIV; conditions: human, in vivo
[11] = test system: HIV

COc1cc([C@H]2Oc3cc(-c4cc(=O)c5c(O)cc(O)cc5o4)cc(OC)c3O[C@@H]2CO)ccc1O (racemic) [5′-MHC, 5′-methoxyhydnocarpin]
accumulation of berberine in the cells [1]: strong increase

CO[C@@H]1C=C2[C@@H]3CC[C@H]([C@H](C)C=C[C@H](C)C(C)C)[C@@]3(C)CC[C@@H]2[C@@]2(C)CC[C@H](O)C[C@]12O [3 beta-5 alpha-dihydroxy-6beta-methoxyergosta-7,22-diene]
inhibition of HIV-1 protease [2]: moderately active

C=CCSSCC=C [Allyl disulfide]
cell proliferation of HIV-1-infected cells [3]: strongly depressed

COc1ccc2cc3[n+](cc2c1OC)CCc1cc2c(cc1-3)OCO2 [Berberine]
inhibition of HIV-1 reverse transcriptase [4]: inhibits

C/C(=C\CC[C@@H](C)[C@H]1CC(=O)[C@@]2(C)C3=C(C(=O)C[C@]12C)[C@@]1(C)CC[C@H](O)C(C)(C)[C@@H]1C[C@@H]3O)C(=O)O [Ganoderic acid beta]
inhibition of HIV-1 protease [2]: significant

C[C@H](CCC=C(CO)CO)[C@H]1CC[C@@]2(C)C3=CC[C@H]4C(C)(C)C(=O)CC[C@]4(C)C3=CC[C@]12C [Ganoderiol F]
activity as anti-HIV-1 agents [5]: active

Cc1cn([C@H]2C[C@H](N=[N+]=[N-])[C@@H](CO)O2)c(=O)[nH]c1=O [ZDV, zidovudine]
CD4+ T cell counts [6]: decreased

C=CCO [allyl alcohol]
cell proliferation of HIV-1-infected cells [3]: strongly depressed; also recorded: completely inhibited

C=C1CC[C@@H]2[C@](C)(CO)[C@H](O)CC[C@@]2(C)[C@@H]1C/C=C1/C(=O)OC[C@H]1O [andrographolide]
mean CD4(+) lymphocyte level of HIV subjects [7]: significant rise

CC1(C)CCC2=C(O1)c1ccccc1C(=O)C2=O [beta-lapachone]
inhibition of HIV-1 LTR-directed gene expression [8]: potent and selective inhibitor | p24 antigen production [9]: inhibited

O=c1[nH]cnc2c1ncn2[C@H]1CC[C@@H](CO)O1 [ddI, didanosine]
mean change of CD4 cells/mm3 [10]: decrease

CC(CC(=O)C[C@@H](C)[C@H]1CC(=O)[C@@]2(C)C3=C(C(=O)C[C@]12C)[C@@]1(C)CC[C@H](O)C(C)(C)[C@@H]1C[C@@H]3O)C(=O)O (stereo partly drawn) [ganoderic acid B]
inhibition of HIV-1 protease [2]: moderately active

C[C@H](CC(=O)C[C@@H](C)[C@H]1CC(=O)[C@@]2(C)C3=C(C(=O)C[C@]12C)[C@@]1(C)CCC(=O)C(C)(C)[C@@H]1C[C@@H]3O)C(=O)O [ganoderic acid C1]
inhibition of HIV-1 protease [2]: moderately active

CC(=O)O[C@@H]1C(=O)C2=C(C(=O)C[C@H]3C(C)(C)[C@@H](O)CC[C@]23C)[C@]2(C)C(=O)C[C@H]([C@H](C)CC(=O)CC(C)C(=O)O)[C@@]12C (stereo partly drawn) [ganoderic acid H]
inhibition of HIV-1 protease [2]: moderately active

CC(=O)OC1C(=O)C2=C(C(=O)CC3C(C)(C)[C@@H](O)CC[C@]23C)[C@]2(C)[C@H](O)C[C@H]([C@H](C)CC(=O)CC(C)C(=O)O)[C@@]12C (stereo partly drawn) [ganoderic acid alpha]
inhibition of HIV-1 protease [2]: moderately active

C[C@H](CC[C@H](O)C(C)(O)CO)[C@H]1CC[C@@]2(C)C3=CC[C@H]4C(C)(C)[C@@H](O)CC[C@]4(C)C3=CC[C@]12C (stereo partly drawn) [ganoderiol A]
inhibition of HIV-1 protease [2]: moderately active

C[C@H](CCC=C(CO)CO)[C@H]1C[C@H](O)[C@@]2(C)C3=CC[C@H]4C(C)(C)C(=O)CC[C@]4(C)C3=CC[C@]12C [ganoderiol B]
inhibition of HIV-1 protease [2]: moderately active

C[C@H](CC[C@H](O)C(C)(C)O)[C@H]1CC[C@@]2(C)C3=CC[C@H]4C(C)(C)C(=O)CC[C@]4(C)C3=CC[C@]12C [ganodermanondiol]
inhibition of HIV-1 protease [2]: significant

C[C@H](CC[C@H](O)[C@](C)(O)CO)[C@H]1CC[C@@]2(C)C3=CC[C@H]4C(C)(C)C(=O)CC[C@]4(C)C3=CC[C@]12C [ganodermanontriol]
activity as anti-HIV-1 agents [5]: active | inhibition of HIV-1 protease [2]: significant

CC(CC(=O)C[C@@H](C)[C@H]1C[C@H](O)[C@@]2(C)C3=C(C(=O)C[C@]12C)[C@@]1(C)CCC(=O)C(C)(C)[C@@H]1CC3)C(=O)O (stereo partly drawn) [ganolucidic acid A]
inhibition of HIV-1 protease [2]: significant

lentinan
tolerability ([11]; HIV-positive patients): good tolerability | CD4 cells ([11]; human, in vivo): trend toward increases
